Test results: patent US9540393B2, “Inhibitors of human immunodeficiency virus replication” (priority 2013, dated 2017)
Like-named read-outs stand apart in the source and are kept apart here.

How the values were obtained:
[1] = rcm bond, DCE
NL-RLuc virus = assay: Inhibition of HIV replication (NL-RLuc luciferase reporter virus in MT-2 cells); type: cell-based, human immunodeficiency virus (HIV); conditions: recombinant NL-Rluc virus infecting MT-2 cells, 5 days of incubation, luciferase readout; at least 2 experiments; serum condition not given (10% FBS, 15 mg/ml human serum albumin/10% FBS or 40% human serum/5% FBS)

Row | Structure (SMILES) | EC50 (NL-RLuc virus) [nM] | also measured
1 | CCOC(=O)[C@@H](OC(C)(C)C)c1c(C)nc2cc3nn2c1N1CCC(C)(CC1)OCCCCOc1ccccc1CC(=O)CNC3=O | – | ring closure, yield of all isomers ([1]; from C=CCOc1ccccc1CC(O)CNC(=O)c1cc2nc(C)c([C@H](OC(C)(C)C)C(=O)OCC)c(N3CCC(C)(OCC=C)CC3)n2n1, Hoveyda-Grubbs 2nd generation, 7.4 mM, 70.0 °C, 2.0 h, 3 steps): 43.1%
2 | Cc1nc2cc3nn2c(c1[C@H](OC(C)(C)C)C(=O)O)-c1ccc2c(c1Cl)N(CC=CCCc1ccccc1CNC3=O)CCO2 | – | ring closure, yield of all isomers ([1]; from C=CCCc1ccccc1CNC(=O)c1cc2nc(C)c([C@H](OC(C)(C)C)C(=O)OCC)c(-c3ccc4c(c3Cl)N(CC=C)CCO4)n2n1, Hoveyda-Grubbs II, 32.0 mM, 83.0 °C, 3.0 h, 2 steps): 14.8%
3 | Cc1nc2cc3nn2c(c1[C@H](OC(C)(C)C)C(=O)O)-c1ccc2c(c1Cl)N(CC=CCOc1cc(F)ccc1CNC3=O)CCO2 | – | ring closure, yield of all isomers ([1]; from C=CCOc1cc(F)ccc1CNC(=O)c1cc2nc(C)c([C@H](OC(C)(C)C)C(=O)OCC)c(-c3ccc4c(c3Cl)N(CC=C)CCO4)n2n1, Hoveyda-Grubbs II, 57.0 mM, 83.0 °C, 3.0 h, 2 steps): 30.5%
4 | Cc1nc2cc3nn2c(c1[C@H](OC(C)(C)C)C(=O)O)-c1ccccc1C=CCOc1cc(F)ccc1CNC3=O | – | ring closure, yield of all isomers ([1]; from C=CCOc1cc(F)ccc1CNC(=O)c1cc2nc(C)c([C@H](OC(C)(C)C)C(=O)OCC)c(-c3ccccc3C=C)n2n1, Hoveyda-Grubbs II, 37.0 mM, 83.0 °C, 16.0 h, 2 steps): 5%
5 | Cc1nc2cc3nn2c(c1[C@H](OC(C)(C)C)C(=O)O)N1CCC(C)(CC1)OCCCCOc1ccccc1CC(O)CNC3=O (some centres unmarked) | – | ring closure, yield of all isomers ([1]; from C=CCOc1ccccc1CC(O)CNC(=O)c1cc2nc(C)c([C@H](OC(C)(C)C)C(=O)OCC)c(N3CCC(C)(OCC=C)CC3)n2n1, Hoveyda-Grubbs 2nd generation, 6.0 mM, 70.0 °C, 2.0 h, 3 steps): 51.1%
6 | Cc1nc2cc3nn2c(c1[C@H](OC(C)(C)C)C(=O)O)-c1ccc2c(c1Cl)N(C/C=C/COc1cc(F)ccc1CNC3=O)CCO2 (single isomer, unassigned) [Example 2] | 31 | –
7 | Cc1nc2cc3nn2c(c1[C@H](OC(C)(C)C)C(=O)O)-c1ccc2c(c1Cl)N(CC/C=C\Oc1cc(F)ccc1CNC3=O)CCO2 (single isomer, unassigned) [Example 3] | 42 | –
8 | Cc1nc2cc3nn2c(c1[C@H](OC(C)(C)C)C(=O)O)-c1ccc2c(c1Cl)N(C/C=C/COc1cc(F)ccc1CNC3=O)CCO2 (single isomer, unassigned) [Example 4] | 1460 | –
9 | Cc1nc2cc3nn2c(c1[C@H](OC(C)(C)C)C(=O)O)-c1ccc2c(c1Cl)N(CC/C=C\Oc1cc(F)ccc1CNC3=O)CCO2 (single isomer, unassigned) [Example 5] | 12100 | –
10 | Cc1nc2cc3nn2c(c1[C@H](OC(C)(C)C)C(=O)O)N1CCC(C)(CC1)OCCCCOc1ccccc1CC(O)CNC3=O (single isomer, unassigned) [Example 21] | 136 | –
11 | Cc1nc2cc3nn2c(c1[C@H](OC(C)(C)C)C(=O)O)N1CCC(C)(CC1)OCCCCOc1ccccc1CC(O)CNC3=O (single isomer, unassigned) [Example 22] | 57 | –
